Experimental data reported in US20250277186A1, “COMPOUND MICROBIAL INOCULUM WITH BACTERIOSTATIC EFFECT AND USE THEREOF IN PREPARATION OF YOGURT” (priority 2023, published 2025).

Key:
[1] = system: Lacticaseibacillus rhamnosus FMBL L23004 CNN; experiment: Antibiotic sensitivity, drug-sensitive paper; for Antibiotic sensitivity of Lacticaseibacillus rhamnosus FMBL L23004 CNN: key: R: resistant; I: intermediately sensitive; S: sensitive; assay type: cell-based; conditions: for Antibiotic sensitivity of Lacticaseibacillus rhamnosus FMBL L23004 CNN: drug-sensitive paper (content per Table 3), MRS solid medium, anaerobic 37° C. 24 h; for Resistant / sensitive, Lacticaseibacillus rhamnosus FMBL L23004 CNN: text statement for the two strains
Experimental: (§1) After two strains were cultured anaerobically at 37° C. at a 2% inoculation rate for 24 h, 100 μL (about 1×10^7 cfu/mL) of a bacteria solution of each strain was coated on the surface of an MRS solid medium, and then drug-sensitive paper (purchased from Oxoid Company, UK) was lightly pressed tightly in the middle of each of the mediums; and after anaerobic culture was carried out at 37° C. for 24 h, the bacteriostatic condition of the drug-sensitive paper was observed, and the diameter of the inhibition zone was measured.

[2] = system: Lactiplantibacillus plantarum FMBL L23036 CNN; experiment: Antibiotic sensitivity, drug-sensitive paper; for Antibiotic sensitivity of Lactiplantibacillus plantarum FMBL L23036 CNN: key: R: resistant; I: intermediately sensitive; S: sensitive; assay type: cell-based; conditions: for Antibiotic sensitivity of Lactiplantibacillus plantarum FMBL L23036 CNN: drug-sensitive paper (content per Table 3), MRS solid medium, anaerobic 37° C. 24 h; for Resistant / sensitive, Lactiplantibacillus plantarum FMBL L23036 CNN: text statement for the two strains
Experimental: as §1

Compound | Antibiotic sensitivity of Lacticaseibacillus rhamnosus FMBL L23004 CNN [1] | Resistant / sensitive, Lacticaseibacillus rhamnosus FMBL L23004 CNN [1] | Antibiotic sensitivity of Lactiplantibacillus plantarum FMBL L23036 CNN [2] | Resistant / sensitive, Lactiplantibacillus plantarum FMBL L23036 CNN [2]
NCC[C@H](O)C(=O)N[C@@H]1C[C@H](N)[C@@H](O[C@H]2O[C@H](CN)[C@@H](O)[C@H](O)[C@H]2O)[C@H](O)[C@H]1O[C@H]1O[C@H](CO)[C@@H](O)[C@H](N)[C@H]1O [Amikacin] | R | resistant | R | resistant
CC1(C)S[C@@H]2[C@H](NC(=O)[C@H](N)c3ccc(O)cc3)C(=O)N2[C@H]1C(=O)O [Amoxicillin] | S | sensitive | S | sensitive
CC1(C)S[C@@H]2[C@H](NC(=O)[C@H](N)c3ccccc3)C(=O)N2[C@H]1C(=O)O [Ampicillin] | S | sensitive | S | sensitive
O=C(Cc1cccs1)N[C@@H]1C(=O)N2C(C(=O)[O-])=C(C[n+]3ccccc3)CS[C@H]12 [Cephaloridine] | S | sensitive | S | sensitive
O=C(N[C@H](CO)[C@H](O)c1ccc([N+](=O)[O-])cc1)C(Cl)Cl [Chloramphenicol] | S | sensitive | S | sensitive
O=C(O)c1cn(C2CC2)c2cc(N3CCNCC3)c(F)cc2c1=O [Ciprofloxacin] | R | resistant | R | resistant
CCC[C@@H]1C[C@@H](C(=O)N[C@@H]([C@H]2O[C@H](SC)[C@H](O)[C@@H](O)[C@H]2O)[C@H](C)Cl)N(C)C1 [Clindamycin] | S | – | S | –
CC[C@H]1OC(=O)[C@H](C)[C@@H](O[C@H]2C[C@@](C)(OC)[C@@H](O)[C@H](C)O2)[C@H](C)[C@@H](O[C@@H]2O[C@H](C)C[C@H](N(C)C)[C@H]2O)[C@](C)(O)C[C@@H](C)C(=O)[C@H](C)[C@@H](O)[C@]1(C)O [Erythromycin] | S | – | I | –
NC[C@H]1O[C@H](O[C@H]2[C@H](O)[C@@H](O[C@H]3O[C@H](CO)[C@@H](O)[C@H](N)[C@H]3O)[C@H](N)C[C@@H]2N)[C@H](O)[C@@H](O)[C@@H]1O [Kanamycin] | R | – | R | –
CN(C)c1ccc(O)c2c1C[C@H]1C[C@H]3[C@H](N(C)C)C(O)=C(C(N)=O)C(=O)[C@@]3(O)C(O)=C1C2=O [Minocycline] | S | – | S | –
CCn1cc(C(=O)O)c(=O)c2cc(F)c(N3CCNCC3)cc21 [Norfloxacin] | R | resistant | R | resistant
Cc1onc(-c2ccccc2)c1C(=O)N[C@@H]1C(=O)N2[C@@H]1SC(C)(C)[C@@H]2C(=O)O [Oxacillin] | I | – | R | –
CO[C@H]1/C=C/O[C@@]2(C)Oc3c(C)c(O)c4c(O)c(c(/C=N/N5CCN(C)CC5)c(O)c4c3C2=O)NC(=O)/C(C)=C\C=C\[C@H](C)[C@H](O)[C@@H](C)[C@@H](O)[C@@H](C)[C@H](OC(C)=O)[C@@H]1C [Rifampicin] | S | – | S | –
[H]/N=C(/N)N[C@H]1[C@H](O)[C@@H](O)[C@H](O[C@@H]2O[C@@H](C)[C@](O)(C=O)[C@H]2O[C@@H]2O[C@@H](CO)[C@H](O)[C@@H](O)[C@@H]2NC)[C@@H](N/C(N)=N\[H])[C@@H]1O [Streptomycin] | I | – | R | –
CN(C)[C@@H]1C(O)=C(C(N)=O)C(=O)[C@@]2(O)C(O)=C3C(=O)c4c(O)cccc4[C@@](C)(O)[C@H]3C[C@@H]12 [Tetracycline] | S | – | S | –
CN[C@H](CC(C)C)C(=O)N[C@H]1C(=O)N[C@@H](CC(N)=O)C(=O)N[C@H]2C(=O)N[C@H]3C(=O)N[C@H](C(=O)N[C@H](C(=O)O)c4cc(O)cc(O)c4-c4cc3ccc4O)[C@H](O)c3ccc(c(Cl)c3)Oc3cc2cc(c3O[C@@H]2O[C@H](CO)[C@@H](O)[C@H](O)[C@H]2O[C@H]2C[C@](C)(N)[C@H](O)[C@H](C)O2)Oc2ccc(cc2Cl)[C@H]1O [Vancomycin] | R | resistant | R | resistant
Gentamicin | R | resistant | R | resistant
Penicillin | S | sensitive | S | sensitive
Polymyxin | R | resistant | R | resistant
Teicoplanin | R | resistant | R | resistant
